pIC50: −log10 of the molar value. Activity calls are given as the source filed them. The calls are words filed in the database; no cut-off is given here.
Legend:
HeLa [1] = test: Cytotoxicity against human HeLa cells assessed as cell viability at 50 uM after 3 hrs; type: cell-based
[2] = Cytotoxicity against human C33 cells assessed as growth inhibition after 48 hrs by MTT assay; type: functional, cell-based; conditions: C33, 48 h
HeLa [3] = test: Cytotoxicity against human HeLa cells assessed as growth inhibition after 48 hrs by MTT assay; type: functional, cell-based
K562 [4] = test: Cytotoxicity against human K562 cells assessed as growth inhibition after 48 hrs by MTT assay; type: functional, cell-based; conditions: K562, 48 h
MCF7 [5] = test: Cytotoxicity against human MCF7 cells assessed as growth inhibition after 48 hrs by MTT assay; type: functional, cell-based; conditions: MCF7, 48 h
SW480 [6] = test: Cytotoxicity against human SW480 cells assessed as growth inhibition after 48 hrs by MTT assay; type: functional, cell-based; conditions: SW480, 48 h
SW-620 [7] = test: Cytotoxicity against human SW620 cells assessed as growth inhibition after 48 hrs by MTT assay; type: functional, cell-based; conditions: SW-620, 48 h
[8] = Cytotoxicity against human HEK293Q cells assessed as growth inhibition after 48 hrs by MTT assay; type: cell-based
HeLa [9] = test: Induction of cytoplasmic vacuolation in human HeLa cells; type: functional, cell-based
[10] = Cytotoxicity against human CALO cells assessed as growth inhibition after 48 hrs by MTT assay; type: functional, cell-based
HeLa [11] = test: Induction of apoptosis in human HeLa cells assessed as DNA fragmentation at 0.25 uM after 48 hrs by TUNEL assay; type: functional, cell-based
HeLa [12] = test: Induction of apoptosis in human HeLa cells assessed as change in p53 expression at 0.25 uM after 24 hrs by Western blot analysis; type: functional, cell-based
HeLa [13] = test: Induction of apoptosis in human HeLa cells assessed as change in Bax expression at 0.25 uM after 24 hrs by Western blot analysis; type: functional, cell-based
HeLa [14] = test: Induction of apoptosis in human HeLa cells assessed as change in procaspase-3 expression at 0.25 uM after 24 hrs by Western blot analysis; type: functional, cell-based
HeLa [15] = test: Induction of apoptosis in human HeLa cells; type: functional, cell-based
HeLa [16] = test: Cell cycle arrest in human HeLa cells assessed as accumulation at sub G1 phase at 0.25 uM after 48 to 72 hrs by propidium iodide staining-based FACS flow cytometric analysis; type: functional
HeLa [17] = test: Cell cycle arrest in human HeLa cells assessed as accumulation at G2/M phase at 0.25 uM after 12 hrs by propidium iodide staining-based FACS flow cytometric analysis; type: functional
HeLa [18] = test: Cell cycle arrest in human HeLa cells assessed as accumulation at polyploidy region at 0.25 uM after 48 to 72 hrs by propidium iodide staining-based FACS flow cytometric analysis; type: functional
HeLa [19] = test: Induction of autophagy in human HeLa cells assessed as increase in conversion of LC3B-1 to LC3B-2 at 10 uM after 3 hrs by Western blot analysis; type: functional, cell-based
C33 = test: Cytotoxicity against human C33 cells assessed as growth inhibition at 0.25 to 100 uM after 48 hrs by MTT assay; type: functional, cell-based
HeLa [20] = test: Cytotoxicity against human HeLa cells assessed as growth inhibition at 0.25 to 100 uM after 48 hrs by MTT assay; type: functional, cell-based
K562 [21] = test: Cytotoxicity against human K562 cells assessed as growth inhibition at 0.25 to 100 uM after 48 hrs by MTT assay; type: functional, cell-based
MCF7 [22] = test: Cytotoxicity against human MCF7 cells assessed as growth inhibition at 0.25 to 100 uM after 48 hrs by MTT assay; type: functional, cell-based
SW480 [23] = test: Cytotoxicity against human SW480 cells assessed as growth inhibition at 0.25 to 100 uM after 48 hrs by MTT assay; type: functional, cell-based
CALO = test: Cytotoxicity against human CALO cells assessed as growth inhibition at 0.25 to 100 uM after 48 hrs by MTT assay; type: functional, cell-based
SW-620 [24] = test: Cytotoxicity against human SW620 cells assessed as growth inhibition at 0.25 to 100 uM after 48 hrs by MTT assay; type: functional, cell-based
[25] = Cytotoxicity against human HEK293Q cells assessed as growth inhibition at 0.25 to 100 uM after 48 hrs by MTT assay; type: cell-based
HeLa [26] = test: Induction of apoptosis in human HeLa cells assessed as DNA fragmentation at 13 uM after 48 hrs by TUNEL assay; type: functional, cell-based
HeLa [27] = test: Induction of apoptosis in human HeLa cells assessed as change in p53 expression at 2.5 to 15 uM after 24 hrs by Western blot analysis; type: functional, cell-based
HeLa [28] = test: Induction of apoptosis in human HeLa cells assessed as change in Bax expression at 2.5 to 15 uM after 24 hrs by Western blot analysis; type: functional, cell-based
HeLa [29] = test: Induction of apoptosis in human HeLa cells assessed as change in procaspase-3 expression at 2.5 to 15 uM after 24 hrs by Western blot analysis; type: functional, cell-based
HeLa [30] = test: Induction of apoptosis in human HeLa cells assessed as change in Bcl-2 expression at 2.5 to 15 uM after 24 hrs by Western blot analysis; type: functional, cell-based
HeLa [31] = test: Induction of cytoplasmic vacuolation in human HeLa cells assessed as change in cell morphology at 13 uM after 24 hrs by hematoxylin staining-based light microscopic analysis in presence of cycloheximide; type: functional
HeLa [32] = test: Induction of necrosis in human HeLa cells assessed as inhibition of cell viability at 13 uM after 24 to 48 hrs by tryphan blue exclusion assay; type: functional, cell-based
HeLa [33] = test: Induction of necrosis in human HeLa cells assessed as inhibition of cell viability at 13 uM after 24 to 48 hrs by MTT assay; type: functional, cell-based
HeLa [34] = test: Induction of necrosis in human HeLa cells at 13 uM after 24 to 48 hrs by LDH release assay; type: functional, cell-based
HeLa [35] = test: Induction of autophagy in human HeLa cells assessed as large vacuole formation at 13 uM after 24 hrs by inverted microscopic analysis in presence of spautin-1; type: functional, cell-based
HeLa [36] = test: Induction of autophagy in human HeLa cells assessed as increase in conversion of LC3B-1 to LC3B-2 at 13 uM after 24 hrs by Western blot analysis; type: functional, cell-based
HeLa [37] = test: Induction of autophagy in human HeLa cells assessed as increase in conversion of LC3B-1 to LC3B-2 at 13 uM after 24 hrs by Western blot analysis in presence of spautin-1; type: functional, cell-based
HeLa [38] = test: Cytotoxicity against human HeLa cells assessed as cell viability at 13 uM after 24 hrs by MTT assay in presence of spautin-1; type: functional, cell-based
HeLa [39] = test: Cytotoxicity against human HeLa cells assessed as cell viability at 13 uM after 48 hrs by MTT assay in presence of gallic acid; type: functional, cell-based
HeLa [40] = test: Induction of cytoplasmic vacuolation in human HeLa cells at 13 uM after 24 hrs by hematoxylin staining-based light microscopic analysis; type: functional, cell-based
HeLa [41] = test: Induction of cytoplasmic vacuolation in human HeLa cells at 13 uM after 24 hrs by neutral red staining-based light microscopic analysis; type: functional, cell-based
HeLa [42] = test: Cell cycle arrest in human HeLa cells assessed as increase in accumulation at G1 phase at 13 uM after 48 to 72 hrs by propidium iodide staining-based FACS flow cytometric analysis; type: functional
HeLa [43] = test: Cell cycle arrest in human HeLa cells assessed as decrease in reduction in cells at S phase at 13 uM after 72 hrs by propidium iodide staining-based FACS flow cytometric analysis; type: functional
HeLa [44] = test: Cell cycle arrest in human HeLa cells assessed as effect on G2/M phase at 13 uM after 12 to 72 hrs by propidium iodide staining-based FACS flow cytometric analysis; type: functional
HeLa [45] = test: Cell cycle arrest in human HeLa cells assessed as accumulation at sub G1 phase at 13 uM after 72 hrs by propidium iodide staining-based FACS flow cytometric analysis; type: functional

## C[C@@H]1C[C@@H]([C@H](O)CC2CC(=O)NC(=O)C2)C(=O)[C@@H](C)C1 [CYCLOHEXIMIDE]
HeLa [1]
  Activity: Non-toxic

## Cn1c(=O)c2c(-c3ccsc3)c3c(nc2n(C)c1=O)/C(=C/c1ccsc1)CCC3
[2]
  pIC50: < 4.00
HeLa [3]
  pIC50: < 4.00
K562 [4]
  pIC50: < 4.00
MCF7 [5]
  pIC50: < 4.00
SW480 [6]
  pIC50: < 4.00
SW-620 [7]
  pIC50: < 4.00
[8]
  pIC50: < 4.00
HeLa [9]
  Activity: inactive
[10]
  pIC50: < 4.00

## CC(=O)O[C@H]1C(=O)[C@@]2(C)[C@H]([C@H](OC(=O)c3ccccc3)[C@]3(O)C[C@H](OC(=O)[C@H](O)[C@@H](NC(=O)c4ccccc4)c4ccccc4)C(C)=C1C3(C)C)[C@]1(OC(C)=O)CO[C@@H]1C[C@@H]2O
HeLa [11]
  Activity: Active
HeLa [12]
  Activity: inactive
HeLa [13]
  Activity: inactive
HeLa [14]
  Activity: inactive
HeLa [15]
  Activity: Active
HeLa [16]
  Activity: Active
HeLa [17]
  Activity: Active
HeLa [18]
  Activity: Active

## Cn1cccc1/C=C1\COCc2c1nc1c(c2-c2cccn2C)c(=O)n(C)c(=O)n1C
[2]
  pIC50: 4.67
HeLa [3]
  pIC50: 4.71
K562 [4]
  pIC50: 4.42
MCF7 [5]
  pIC50: 5.08
SW480 [6]
  pIC50: 4.55
SW-620 [7]
  pIC50: 4.86
[8]
  pIC50: 4.17
[10]
  pIC50: 4.36

## Fc1ccc(CNc2ncnc3ccc(F)cc23)cc1
HeLa [19]
  Activity: inactive

## Cn1c(=O)c2c(-c3ccsc3)c3c(nc2n(C)c1=O)/C(=C/c1ccsc1)COC3
C33
  growth inhibition (GI): inactive
HeLa [20]
  growth inhibition (GI): inactive
K562 [21]
  growth inhibition (GI): inactive
MCF7 [22]
  growth inhibition (GI): inactive
SW480 [23]
  growth inhibition (GI): inactive
CALO
  growth inhibition (GI): inactive
SW-620 [24]
  growth inhibition (GI): inactive
[25]
  Activity: Non-toxic
HeLa [9]
  Activity: inactive

## Cn1cccc1/C=C1\CCCc2c1nc1c(c2-c2cccn2C)c(=O)n(C)c(=O)n1C
HeLa [26]
  Activity: inactive
HeLa [27]
  Activity: inactive
HeLa [28]
  Activity: inactive
HeLa [29]
  Activity: inactive
HeLa [30]
  Activity: inactive
HeLa [31]
  Activity: Active
HeLa [32]
  Activity: Active
HeLa [33]
  Activity: Active
HeLa [34]
  Activity: Active
HeLa [35]
  Activity: inactive
HeLa [36]
  Activity: Active
HeLa [37]
  Activity: inactive
HeLa [38]
  Activity: Active
HeLa [39]
  Activity: Active
[2]
  pIC50: 4.65
HeLa [3]
  pIC50: 4.88
K562 [4]
  pIC50: 4.98
MCF7 [5]
  pIC50: 5.03
SW480 [6]
  pIC50: 5.36
SW-620 [7]
  pIC50: 5.07
[8]
  pIC50: 4.22
HeLa [40]
  Activity: Active
HeLa [41]
  Activity: Active
HeLa [42]
  Activity: Active
HeLa [43]
  Activity: Active
HeLa [44]
  Activity: inactive
HeLa [45]
  Activity: inactive
[10]
  pIC50: 4.88

Reference: ChEMBL document CHEMBL2390853, “The products of the reaction between 6-amine-1,3-dimethyl uracil and bis-chalcones induce cytotoxicity with massive vacuolation in HeLa cervical cancer cell line” (Eur J Med Chem, 2013)
